Measured values from patent US20240299562A1 (priority 2020, published 2024).
Where a SMILES comes first, the peptide text is derived from it.

Legend:
[1] = system: U87 MG glioblastoma cells subcutaneously implanted in nude NMRI mice; experiment: In vivo activity of PhAc-ALLP-Dox on U87 MG glioblastoma xenograft; design: species or system mouse; details: 154 mg/kg iv, once per week
Experimental: The in vivo efficacy of PhAc-ALLP-Dox was tested in a mouse GBM model. U87 MG glioblastoma cells were subcutaneously (SC) implanted in nude NMRI mice. In total, 32 adult (9-10 weeks old) nude female NMRI mice (Janvier, France) were subjected to SC tumor cell grafting in the right flank. In total, 5×10^6 U87 MG cells resuspended in PBS plus Matrigel (1:1) were injected in 200 uL final volume. As soon as the tumors were palpable and reached the volume of 200 mm3 the treatment was started. At day zero, mice were randomly divided into 4 groups, based on the tumor volume, in order to have the following experimental sub-cohorts: • control group receiving the vehicle (PBS pH7.2) with a dose of 5 ml/kg, intravenously (iv), once per week (QW); • PhAc-ALLP-Dox (30 mg/kg iv, QW); • PhAc-ALGP-Dox (154 mg/kg iv, QW); • Dox (5 mg/kg iv, QW).
Treatments were performed once per week for a total of four tail vein administrations/injections (on days 1, 7, 14 and 21). One extra week of observation followed the active treatment phase. During the experiment, tumor volume was measured two times a week and was assessed three-dimensionally with a digital caliper (Mitutoyo, Illinois) using the following formula:
V=4/3π×[(d/2)^2×(D/2)], where d is the minor tumor axis and D is the major tumor axis.

[2] = WST-1 cell viability, normal HME-1 cells; type: cell-based, human; details: human; HME-1 normal cells; 72 hrs, WST-1 (Table 2); read-out: Maximal efficacy, cytotoxicity (%) at 100 μM
Experimental: (§1) All commercial cell lines were purchased at ATCC (LGC Standards SARL, France). Cells were seeded in 96-well plates according to their optimal seeding density, varying between 5.000 and 10.000 cells/well. After attachment overnight, 10-point serial titrations (1:5) were prepared in their equivalent complete media as recommended by ATCC, starting from the 10 mM stock solutions. For doxorubicin comprising prodrugs dilutions started from 100 μM, while for the parent compound doxorubicin dilutions started at 10 μM. […] Seventy-two hours later, compounds were removed together with the supernatants and cells were washed once with PBS to remove excess drugs.
(§2) The WST-1 assay for cell proliferation and viability (Roche, Switzerland) was performed according to manufacturer's protocol. Absorbances were measured at 4 hrs using a Perkin Elmer Ensight multiplate reader, equipped with Kaleido 2.0 software (Perkin Elmer, USA). Cell viability was expressed as a percentage compared to non-treated cells. Absolute IC50 values were extrapolated from a non-linear fitting following the Sigmoidal-4PL regression method using Graphpad Prism 7.0. Likewise, maximal efficacy was determined as 100% minus the cell viability determined when cells are incubated in the presence of a compound. For instance, if 20% of the cells survive incubation in the presence of a compound, then the maximal efficacy of that compound is 100%-20%=80%.
(§3) Selectivity indices (SI) were defined as the ratio of the concentration of drug required to kill 50% of the cells in normal (control, non-cancer) cells, divided by the concentration required to exert the same efficacy in tumor cells: SI=IC50 (control cell)/IC50 (cancer cell), or SI=^HME-1IC50/cancer IC50.

HME-1 cells = experiment: WST-1 cell viability, normal HME-1 cells; type: cell-based, human; details: HME-1 normal cells; 72 hrs continuous drug exposure, WST-1 (Table 1); read-out: Absolute IC50
Experimental: as §1, §2, §3

COc1cccc2c1C(=O)c1c(O)c3c(c(O)c1C2=O)C[C@@](O)(C(=O)CO)C[C@@H]3O[C@H]1C[C@H](NC(=O)[C@@H]2CCCN2C(=O)CNC(=O)[C@H](CC(C)C)NC(=O)[C@H](C)NC(=O)CP(=O)(O)O)[C@H](O)[C@H](C)O1 [PhAc-ALGP-Dox, reference compound] (HELM PEPTIDE1{[O=C(CP(=O)(O)O)[*:2]].A.L.G.P.[COc1cccc2c1C(=O)c1c(O)c3c(c(O)c1C2=O)C[C@@](O)(C(=O)CO)C[C@@H]3O[C@H]1C[C@H](N[*:1])[C@H](O)[C@H](C)O1]}$$$$V2.0)
Tumor growth [1]: significantly reduced tumor growth | cytotoxicity at 72 h, 100 µM [2]: 31.2% | IC50 (HME-1 cells): > 100 µM
